Measurements from ChEMBL document CHEMBL3507680, “University of Dundee, Gates Library screen for HepG2 cell viability”.

Assay: Human HepG2 cell viability assay in 384 well format
Type: toxicity, cell-based
Set-up: dose 125 nL, time 70.5 hour; cytotoxicity at 70.5 h: concentration not given beside the values
Conditions: HepG2 cells, read-out: Inhibition

O=c1[nH]cc(N2CCCCCC2)c(=O)[nH]1
cytotoxicity at 70.5 h: 9.28%

O=C(Nc1ccccc1)C1CCCN(c2cc(-n3cncn3)ncn2)C1 (stereo not drawn)
cytotoxicity at 70.5 h: -1.76%

O=C(CN1CCOCC1)Nc1ccc(C(F)(F)F)cc1Cl
cytotoxicity at 70.5 h: 14.6%

CCOC(=O)N1CCNC(c2cccs2)C1 (stereo not drawn)
cytotoxicity at 70.5 h: 21.8%

NCc1cnc(Nc2ccccc2)nc1
cytotoxicity at 70.5 h: -17.3%

CNCc1cnc(Nc2ccccc2)nc1
cytotoxicity at 70.5 h: -5.59%

COCC(=O)N1CCC2(CCC(C(=O)N3CCCC3)O2)CC1 (stereo not drawn)
cytotoxicity at 70.5 h: 10.4%

CCN1C(=O)CCC12CCN(S(=O)(=O)c1ccc(C#N)cc1)CC2
cytotoxicity at 70.5 h: 15.5%

CCN1C[C@H]2CCN(C(=O)Nc3ccccc3C)CC[C@H]2S1(=O)=O
cytotoxicity at 70.5 h: 15.6%

Cc1ccccc1NC(=O)N1CC[C@@H]2CN(CC(C)C)S(=O)(=O)[C@@H]2CC1
cytotoxicity at 70.5 h: -9.9%

CCS(=O)(=O)N1CCC2(CCCC(=O)N2C)CC1
cytotoxicity at 70.5 h: -11%

CCN1C(=O)CC[C@]12CC[C@@H](NC(=O)c1cc(C)on1)CC2
cytotoxicity at 70.5 h: -7.54%

CN1C(=O)CCC12CCN(S(=O)(=O)c1ccccc1)CC2
cytotoxicity at 70.5 h: -13.4%

CCN1C(=O)C[C@@H]2[C@@H]1CCN2S(=O)(=O)c1ccccc1
cytotoxicity at 70.5 h: -12.3%

CC(=O)N1CC2(CCN(S(=O)(=O)N(C)C)CC2)C2(CCNC2=O)C1 (stereo not drawn)
cytotoxicity at 70.5 h: -1.55%

Cc1ccccc1NC(=O)N1CC[C@@H]2CN(C)S(=O)(=O)[C@@H]2CC1
cytotoxicity at 70.5 h: -8.26%

Cc1oncc1C(=O)N1CC2CC1(C(=O)NCc1ccco1)C2
cytotoxicity at 70.5 h: -10.9%

COc1cc(N2CCC3(CC2)CC(N2CCOCC2)CO3)ncn1 (stereo not drawn)
cytotoxicity at 70.5 h: -2.9%

Cc1ccc(C(=O)N2C[C@H]3CNC[C@H]3C2)cn1
cytotoxicity at 70.5 h: 25.5%

NC1CCc2c(ccc(=O)n2CC2CC2)C1 (stereo not drawn)
cytotoxicity at 70.5 h: 27.6%

O=C(CC1CC1)N1C[C@H]2CN(CC3CC3)C(=O)[C@H]2C1
cytotoxicity at 70.5 h: -1.89%

CC(C)CN1CCNC(=O)C12CCN(S(=O)(=O)c1ccc(F)cc1)CC2
cytotoxicity at 70.5 h: -3.61%

CC(C)NC(=O)C1CCC2(CCNCC2)C1 (stereo not drawn)
cytotoxicity at 70.5 h: -1.82%

O=S(=O)(C1CC1)N1CCO[C@H]2[C@H](OCC3CC3)CC[C@@H]21
cytotoxicity at 70.5 h: 16.9%

N#Cc1cccc(C(=O)N2CCn3c(Cn4cncn4)cnc3C2)c1
cytotoxicity at 70.5 h: -5.58%

O=C(c1ccccc1)N1Cc2nccn2CC(Cn2ncccc2=O)C1 (stereo not drawn)
cytotoxicity at 70.5 h: -6.78%

O=c1cccnn1CC1CN(c2ncc(F)cn2)Cc2nccn2C1 (stereo not drawn)
cytotoxicity at 70.5 h: -10.5%

O=C(CC1CC1)N1Cc2nccn2CC(Cn2ncccc2=O)C1 (stereo not drawn)
cytotoxicity at 70.5 h: -6.18%

Cc1ccc(C(=O)N2CCc3ncc(Cn4cccn4)n3CC2)o1
cytotoxicity at 70.5 h: -3.58%

CC(=O)NCC(=O)N1CCC2(CC1)NC(=O)CC2c1cnn(C)c1 (stereo not drawn)
cytotoxicity at 70.5 h: -8.17%

C1CC(CN2C[C@@H]3C[C@@H](c4nnc(C5CC5)o4)O[C@@H]3C2)CCO1
cytotoxicity at 70.5 h: -7.69%

O=C(NC1CCCC1)c1cc2c(s1)CCN2C(=O)c1ccccc1
cytotoxicity at 70.5 h: 0.186%

COCCN1CCCc2sc(C(=O)NCC3CCCO3)nc21 (stereo not drawn)
cytotoxicity at 70.5 h: 31.2%

COCCN1Cc2ccccc2C2(CCN(C(=O)c3ccco3)CC2)C1
cytotoxicity at 70.5 h: 1.21%

O=C(NCC1CCCO1)c1nc2c(s1)CCCN2Cc1ccccc1 (stereo not drawn)
cytotoxicity at 70.5 h: -4.02%

CNC(=O)[C@H]1C[C@@H]2CN(C(=O)c3ccoc3)C[C@@H]2N1S(C)(=O)=O
cytotoxicity at 70.5 h: -12%

CNC(=O)[C@H]1C[C@@H]2CN(C(=O)c3ccc(C)o3)C[C@@H]2N1S(C)(=O)=O
cytotoxicity at 70.5 h: -9.33%

CC1c2ncc(Cn3cncn3)n2CCN1C(=O)[C@H]1CCCO1 (stereo partly drawn)
cytotoxicity at 70.5 h: -8.44%

Cn1cc(CN2CCC3(CC2)CN(C(=O)c2cnccn2)CCO3)cn1
cytotoxicity at 70.5 h: -4.88%

O=C(C1CCOC1)N1CCN(Cc2cccnc2)c2ncccc2C1 (stereo not drawn)
cytotoxicity at 70.5 h: -7.36%

CC1c2ncc(Cn3cncn3)n2CCN1C(=O)c1ccsc1 (stereo not drawn)
cytotoxicity at 70.5 h: -4.72%

CC1c2ncc(Cn3cncn3)n2CCN1C(=O)c1ccccn1 (stereo not drawn)
cytotoxicity at 70.5 h: 31.8%

CN(C)C(=O)N1C[C@@H](C(=O)NCc2ccco2)C[C@H]2OCC[C@H]21
cytotoxicity at 70.5 h: -4.06%

CCOCC1CN(C(=O)c2ccnnc2)Cc2cnn(C)c21 (stereo not drawn)
cytotoxicity at 70.5 h: -4.89%

O=C(N1CCCC1)N1CCOCC2(C1)CN(c1ccccc1)C(=O)CO2 (stereo not drawn)
cytotoxicity at 70.5 h: -3.56%

O=C(c1cccs1)N1CCOCC2(C1)CN(c1ccccc1)C(=O)CO2 (stereo not drawn)
cytotoxicity at 70.5 h: -9.8%

CC(C)Nc1nc(N2CCCC2)nc2c1CN(C)CC2
cytotoxicity at 70.5 h: -9.83%

COCC(=O)N1CCC2(C1)c1ccccc1S(=O)(=O)N2CCC(C)C (stereo not drawn)
cytotoxicity at 70.5 h: -5.31%

O=C(c1cc[nH]n1)N1CCOCC2(C1)CN(c1ccccc1)C(=O)CO2 (stereo not drawn)
cytotoxicity at 70.5 h: -12.1%

CCn1ncc2c1C(COC)CN(Cc1ccsc1)C2 (stereo not drawn)
cytotoxicity at 70.5 h: 1.82%

COCC1c2nnn(CC3CC3)c2CCN1C(=O)c1ccnnc1 (stereo not drawn)
cytotoxicity at 70.5 h: -6.63%

O=C(C1CC1)N1CC2(CCNCC2)C1
cytotoxicity at 70.5 h: -8.48%

O=C(N1CCOCC1)N1CCCC2(CCCNC2)C1 (stereo not drawn)
cytotoxicity at 70.5 h: 8.83%

Cc1ccc(C(=O)N2CCc3c(CNc4ncccn4)cncc3C2)o1
cytotoxicity at 70.5 h: -10.9%

CC(C)C(=O)N1CCc2c(CN(C)Cc3ccco3)cncc2C1
cytotoxicity at 70.5 h: -9.73%

O=C(C1CCC2(CCN(CC3CC3)CC2)O1)N1CCCC1 (stereo not drawn)
cytotoxicity at 70.5 h: -7.11%

COc1cc(N2CCC3(CC2)CC(N2CCOCC2)C3)ncn1
cytotoxicity at 70.5 h: -16%

O=C(NC1CC1)N1CCC2(CC1)C(=O)NCCN2Cc1ccccc1
cytotoxicity at 70.5 h: -13.6%

COc1ccc(C[C@H]2CN(C3CCOCC3)CC[C@H]2OCC2CC2)cc1
cytotoxicity at 70.5 h: 20%

COc1ccc(CN2C[C@@H]3CN(Cc4ccoc4)C[C@@H]3C2=O)cc1
cytotoxicity at 70.5 h: -6.31%

O=C(C1CCC2(CCN(CC3CCOCC3)CC2)O1)N1CCCCO1 (stereo not drawn)
cytotoxicity at 70.5 h: -5.73%

c1ccc(C[C@H]2CN(C3CCOCC3)CC[C@H]2OCC2CC2)cc1
cytotoxicity at 70.5 h: -8.83%

CN1CCC2(CCCN(c3nccc(C(F)(F)F)n3)C2)CC1
cytotoxicity at 70.5 h: -11.3%

CN(C)C[C@@H]1CCC[C@@H]2CN(c3ncccn3)C[C@@H]21
cytotoxicity at 70.5 h: -13%

CN(C)C[C@@H]1CCC[C@@H]2CN(c3cccnc3)C[C@@H]21
cytotoxicity at 70.5 h: -1.5%

COCCN(C)C[C@@H]1CCC[C@@H]2CN(c3ncccn3)C[C@@H]21
cytotoxicity at 70.5 h: -0.79%

Cc1cccc(C(=O)N2C[C@@H]3CCN(C(C)C)C[C@@H]3C2)c1
cytotoxicity at 70.5 h: 19%

Cc1ccc(CN2C(=O)CC[C@]23CC[C@@H](NCC2CCOC2)CC3)cc1 (stereo partly drawn)
cytotoxicity at 70.5 h: 18.5%

CC(=O)N1CCC2(CN(CC3CCCC3)C2)C1
cytotoxicity at 70.5 h: -3.32%

CCN1CC(=O)NCC12CCN(C(=O)c1ccno1)C2 (stereo not drawn)
cytotoxicity at 70.5 h: 2.94%

CCN(C)C1COC2(CCN(C(=O)c3ccc(Cl)cc3)CC2)C1 (stereo not drawn)
cytotoxicity at 70.5 h: -9.04%

O=C1CC[C@]2(CC[C@@H](NC3CCOC3)CC2)N1Cc1ccccc1 (stereo partly drawn)
cytotoxicity at 70.5 h: -1.97%

Cc1ccc(CN2CCc3[nH]nc(C(=O)N(C)C)c3C2)o1
cytotoxicity at 70.5 h: -0.827%

c1coc(CN2CCC3(CCOCC3COCC3CC3)CC2)c1 (stereo not drawn)
cytotoxicity at 70.5 h: 2.33%

CC(=O)NCC(=O)N1Cc2nccn2CC(COc2cccnc2)C1 (stereo not drawn)
cytotoxicity at 70.5 h: -10.5%

c1cncc(N2CCCC3(CCN(CC4CCCO4)CC3)C2)c1 (stereo not drawn)
cytotoxicity at 70.5 h: -7.19%

Cc1cnc(N2Cc3nccn3CC(Cn3ncccc3=O)C2)nc1 (stereo not drawn)
cytotoxicity at 70.5 h: -1%

O=C(NCc1ccco1)[C@H]1C[C@@H]2CCN(c3cccc(F)c3)C[C@H]2O1
cytotoxicity at 70.5 h: -5.03%

O=C(c1cnccn1)N1CCCC2(CCN(Cc3ccsc3)CC2)C1
cytotoxicity at 70.5 h: 3.52%

CNC(=O)[C@H]1C[C@@H]2CN(C(=O)c3ccncc3)C[C@@H]2N1S(C)(=O)=O
cytotoxicity at 70.5 h: 22.4%

CC1c2ncc(Cn3cncn3)n2CCN1CC1CCOCC1 (stereo not drawn)
cytotoxicity at 70.5 h: -5.6%

O=C(c1ccco1)N1CCOCC2(C1)CN(c1cccnc1)C(=O)CO2 (stereo not drawn)
cytotoxicity at 70.5 h: -3.1%

O=C(NC1CC1)N1CCOCC2(CCN(Cc3cccs3)C2)C1 (stereo not drawn)
cytotoxicity at 70.5 h: -16%

COc1cc(N2CCC3(CC2)CC(N2CCN(C)CC2)CO3)ncn1 (stereo not drawn)
cytotoxicity at 70.5 h: -20.9%

Cc1ccc(CN2CCC3(CC2)C(=O)N(CC(C)C)CCN3C)o1
cytotoxicity at 70.5 h: -10.1%

O=C(C[C@H]1[C@H]2CN(Cc3ccncc3)C[C@@H]12)N1CCCC1
cytotoxicity at 70.5 h: 20.1%

O=C1CC[C@]2(CC[C@@H](NC3CCOC3)CC2)N1Cc1ccncc1 (stereo partly drawn)
cytotoxicity at 70.5 h: -2.28%

Cn1cc(N2C(=O)CC[C@@H]3[C@H]2CCN3CCc2ccccc2)cn1
cytotoxicity at 70.5 h: 16.8%

CN(C)C1COC2(CCN(Cc3nccs3)CC2)C1 (stereo not drawn)
cytotoxicity at 70.5 h: -4.71%

Cn1nccc1-c1ccc2nc(C3CCN(CC4CC4)CC3)nn2c1
cytotoxicity at 70.5 h: -12.2%

O=C1CC(c2ccncc2)C2(CCN(CC3CC3)CC2)N1 (stereo not drawn)
cytotoxicity at 70.5 h: 14.8%

O=C(CC1CC1)N1CCN(Cc2ccncc2)c2ncccc2C1
cytotoxicity at 70.5 h: -11.9%

Cc1nc(CN2CCc3cc(C(=O)O)c(N(C)C)nc3CC2)cs1
cytotoxicity at 70.5 h: -5.8%

O=C(c1ccnnc1)N1CCN(Cc2ccncc2)c2ncccc2C1
cytotoxicity at 70.5 h: -6.87%

c1cnn(CCCO[C@@H]2CC[C@H]3[C@H]2OCCN3CC2CC2)c1
cytotoxicity at 70.5 h: -7.2%

COCC(=O)N1CCN(Cc2cccnc2)c2ncccc2C1
cytotoxicity at 70.5 h: 1.38%

CN(Cc1cccnc1)[C@@H]1CN(C(=O)NC2CC2)[C@@H]2CCCO[C@H]12
cytotoxicity at 70.5 h: -6.43%

Cc1nc(CN2C(=O)CCC23CCN(Cc2cccn2C)CC3)cs1
cytotoxicity at 70.5 h: -9.94%

CN(Cc1cccnc1)[C@@H]1CN(C(=O)c2ccoc2)[C@@H]2CCCO[C@H]12
cytotoxicity at 70.5 h: -11.9%

O=C(C1CC1)N1CCN(Cc2ccncc2)c2ncccc2C1
cytotoxicity at 70.5 h: -10.1%

O=C(N1CCCO1)[C@@]12CCO[C@@H]1CCN(Cc1cccnc1)C2
cytotoxicity at 70.5 h: -9.68%

CCOCC1CN(C(=O)Cc2ccccn2)Cc2cnn(C)c21 (stereo not drawn)
cytotoxicity at 70.5 h: -3.1%

CC1c2ncc(CNC(=O)C3CC3)n2CCN1Cc1ccccn1 (stereo not drawn)
cytotoxicity at 70.5 h: 0.0373%

c1ccc(OC[C@]23COC[C@H]2CN(C2CCOCC2)C3)nc1
cytotoxicity at 70.5 h: -9.47%

Cc1ccc(CN2CCc3[nH]nc(C(=O)N4CCN(C)CC4)c3C2)o1
cytotoxicity at 70.5 h: 23.5%

CN(Cc1cccnc1)C1COC2(CCN(Cc3nccs3)CC2)C1 (stereo not drawn)
cytotoxicity at 70.5 h: -11%

Cn1ccnc1CN1CC[C@H]2CO[C@H](CNc3ncccn3)[C@H]2C1
cytotoxicity at 70.5 h: -5.82%

O=C(c1ccncc1)N1CCN(Cc2cccnc2)c2ncccc2C1
cytotoxicity at 70.5 h: -8.91%
